In US4837353A, “Dopamine-β-hydroxylase inhibitors” (SmithKline Beckman Corporation, priority 1988, dated 1989):
Counter-ions that a name gives are not always drawn.

Tests used:
DBH = biological target: T1, DBH (Homo sapiens, UniProt P09172); conditions: cited from earlier work; for DBH inhibition (in words): literature reports; for mode of DBH inhibition: phenethylalamine analogues
T1 sequence (P09172 1-617): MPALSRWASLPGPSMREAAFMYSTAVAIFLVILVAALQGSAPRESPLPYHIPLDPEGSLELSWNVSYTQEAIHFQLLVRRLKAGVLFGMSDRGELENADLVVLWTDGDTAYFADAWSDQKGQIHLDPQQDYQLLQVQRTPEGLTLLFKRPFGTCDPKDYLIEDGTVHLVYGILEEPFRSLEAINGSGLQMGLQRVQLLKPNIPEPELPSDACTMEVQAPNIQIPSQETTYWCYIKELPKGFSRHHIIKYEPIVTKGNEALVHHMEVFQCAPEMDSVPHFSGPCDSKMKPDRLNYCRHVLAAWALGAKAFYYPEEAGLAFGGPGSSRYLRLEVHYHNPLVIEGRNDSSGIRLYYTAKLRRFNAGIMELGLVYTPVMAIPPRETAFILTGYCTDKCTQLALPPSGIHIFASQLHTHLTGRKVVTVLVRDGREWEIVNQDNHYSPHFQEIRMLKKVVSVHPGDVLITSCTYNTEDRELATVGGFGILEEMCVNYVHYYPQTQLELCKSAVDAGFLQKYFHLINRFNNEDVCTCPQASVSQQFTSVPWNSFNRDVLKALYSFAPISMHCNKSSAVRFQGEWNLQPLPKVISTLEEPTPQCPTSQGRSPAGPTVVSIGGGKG

[1] = test system: spontaneously hypertensive rats; assay: mean arterial blood pressure in spontaneously hypertensive rats; format: in vivo, rat; conditions: 50 mg/kg intraperitoneally
Description: Further, spontaneously hypertensive rats were treated with a suspension or solution of N-(2-aminoethyl)-1-(3,5-difluorobenzyl)-2-mercaptoimidazole-5-carboxamid formate at a dose of 50 mg/kg intraperitoneally, and mean arterial blood pressure was monitored for 260 minutes using indwelling cannulae in the tail arteries.

O=C(O)c1ccc(CCC(Br)CBr)cn1 (stereo not drawn) [5-(3,4-dibromobutyl)picolinic acid]
DBH inhibition (in words) (DBH): DBH inhibitors

O=C(O)c1ccc(CCCCCl)cn1 [5-(4-chlorobutyl) picolinic acid]
DBH inhibition (in words) (DBH): inhibit DBH

CN(C)C(=S)SCc1ccc(C(=O)O)nc1 [5-(dimethyldithiocarbamoylmethyl)picolinic acid]
DBH inhibition (in words) (DBH): DBH inhibitors

NOCc1ccccc1 [Benzyloxyamine, benzyloxyamine]
mode of DBH inhibition (DBH): apparently act as competitive inhibitors

CCCCc1ccc(C(N)=O)nc1 [Bupicomide, 5-(n-butyl)picolinamine]
DBH inhibition (in words) (DBH): DBH inhibitor

NCCNC(=O)c1cnc(S)n1Cc1cc(F)cc(F)c1 [N-(2-Aminoethyl)-1-(3,5-difluorobenzyl)-2-mercaptoimidazole-5-carboxamide,formate]
blood pressure when monitoring was terminated ([1]; 260 minutes): blood pressure remained decreased when monitoring was terminated
mean arterial blood pressure reduction compared to vehicle-treated controls ([1]; tail artery cannulae, monitored for 260 minutes): significant blood pressure reductions
time following treatment to significant blood pressure reductions ([1]; vs vehicle-treated controls): ≤ 30 min

NNCc1ccccc1 [benzylhydrazine]
mode of DBH inhibition (DBH): apparently act as competitive inhibitors
